Results on 64 compounds are retold here after US8796330B2, “Inhibitors of histone deacetylase and prodrugs thereof” (Methylgene Inc., priority 2006, dated 2014).

recombinant human HDAC-1 enzyme (rHDAC-1), sequence (Q13547 whole entry): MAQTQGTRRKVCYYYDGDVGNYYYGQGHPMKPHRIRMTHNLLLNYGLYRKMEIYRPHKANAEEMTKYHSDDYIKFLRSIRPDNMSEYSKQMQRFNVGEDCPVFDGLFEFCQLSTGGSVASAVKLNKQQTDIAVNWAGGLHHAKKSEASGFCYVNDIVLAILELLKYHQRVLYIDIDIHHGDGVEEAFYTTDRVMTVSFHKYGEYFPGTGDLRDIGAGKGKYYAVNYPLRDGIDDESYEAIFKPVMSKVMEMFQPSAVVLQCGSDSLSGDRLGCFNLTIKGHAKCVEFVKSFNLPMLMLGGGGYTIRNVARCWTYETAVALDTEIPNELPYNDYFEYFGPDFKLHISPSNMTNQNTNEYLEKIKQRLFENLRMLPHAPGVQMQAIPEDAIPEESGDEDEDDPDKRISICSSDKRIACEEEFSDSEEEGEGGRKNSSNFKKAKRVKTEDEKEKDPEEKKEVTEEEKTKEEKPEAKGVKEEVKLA

One assay deals with histone deacetylase in nuclear extracts from H446 cells (pooled HDACs). The experiment in a line: Inhibition of histone deacetylase in H446 nuclear extracts ([3H]-acetylated histone substrate). It is filed as biochemical, human.
Details: not given
In turn, `O=C(NO)c1ccc(CCSc2ccccc2)cc1` [Compound 70, N-Hydroxy-4-(2-thiophenyl)-ethyl benzamide] returned an IC50 of 5.5 µM.

In the case of `O=C(NO)c1ccc(CCS(=O)(=O)c2ccccc2)cc1` [Compound 73, N-Hydroxy-4-(2-benzenesulfonyl)-ethyl benzamide], the “pooled HDACs percent inhibition” value came out at 35% @ 20 μM.

The same assay, now with this note: H446 nuclear extract.
`O=C(Cc1ccc(NS(=O)(=O)c2cc3ccccc3s2)cc1)NO` [Compound 4] displayed a concentration for half-maximal inhibition (IC50) of 7 µM.

As for `O=C(Cc1ccc(NS(=O)(=O)c2ccccc2[N+](=O)[O-])cc1)NO` [Compound 7, 2-[4-(2-nitrobenzenesulfonylamino)-phenyl]-N-hydroxy-acetamide], the IC50 came to 70 µM.

The compound `O=C(Cc1ccc(NS(=O)(=O)c2cc(Cl)ccc2Cl)cc1)NO` [Compound 8, 2-[4-(2,5-dichlorobenzenesulfonylamino)-phenyl]-N-hydroxy-acetamide] returned an IC50 of 15 µM.

In turn, `Cc1ccc(S(=O)(=O)Nc2ccc(CC(=O)NO)cc2)cc1` [Compound 9, 2-[4-(4-methylbenzenesulfonylamino)-phenyl]-N-hydroxy-acetamide] had an IC50 of 9 µM.

On to `O=C(Cc1ccc(NS(=O)(=O)c2cccc(C(F)(F)F)c2)cc1)NO` [Compound 10, 2-[4-(3-trifluoromethylbenzenesulfonylamino)-phenyl]-N-hydroxy acetamide], for which the IC50 was determined as 30 µM.

In turn, `O=C(NO)c1ccc(NS(=O)(=O)c2cc3ccccc3s2)cc1` [Compound 13] displayed an IC50 of 0.9 µM.

The compound `O=C(Cc1ccc(NS(=O)(=O)c2ccc(Cl)c(Cl)c2)cc1)NO` [Compound 15, 2-[4-(3,4-dichlorobenzenesulfonylamino)-phenyl]-N-hydroxy-acetamide] registered an IC50 of 25 µM.

In the case of `O=C(Cc1ccc(NS(=O)(=O)c2cccc3cccnc23)cc1)NO` [Compound 18, 2-[4-(8-quinolinesulfonylamino)-phenyl]-N-hydroxy-acetamide], inhibition was half-maximal at 160 µM (IC50).

With `O=C(Cc1ccc(NS(=O)(=O)c2ccc(Br)cc2)cc1)NO` [Compound 19, 2-[4-(4-bromobenzenesulfonylamino)-phenyl]-N-hydroxy-acetamide], inhibition was half-maximal at 20 µM (IC50).

`O=C(CCCCc1cccc(NS(=O)(=O)c2ccccc2)c1)NO` [Compound 26]: the IC50 is less than 20 µM.

For `O=C(/C=C/C#Cc1ccc(NS(=O)(=O)c2ccccc2)cc1)NO` [Compound 32, N-Hydroxy-5-[4-(benzenesulfonylamino)-phenyl]-4-yn-2-pentanamide], the IC50 is less than 20 µM.

Take `O=C(CCCCc1ccc(NS(=O)(=O)c2ccccc2)cc1)NO` [Compound 34]: the 50% inhibitory concentration (IC50) was 2 µM.

As for `O=C(CCc1ccc(NS(=O)(=O)c2ccccc2)cc1)NO` [Compound 38, N-Hydroxy-3-[4-(benzenesulfonylamino)-phenyl]-2-propanamide], the IC50 came out at 0.75 µM.

Turning to `O=C(/C=C/c1ccc(C(=O)NO)cc1)c1ccccc1` [Compound 45, N-Hydroxy-4-(3-oxo-3-phenylpropenyl)-benzamide], 4 µM corresponded to half-maximal inhibition (IC50).

In turn, `O=C(CCc1ccc(C(=O)NO)cc1)c1ccccc1` [Compound 50, N-Hydroxy-4-(3-oxo-3-phenylpropyl)-benzamide] came in with an IC50 of 5 µM.

Compound `O=C(CC(O)c1ccc(C(=O)NO)cc1)c1ccccc1` (centres unmarked) [Compound 53, N-Hydroxy-4-(3-oxo-3-phenyl-1-hydroxypropyl)-benzamide] displayed an IC50 of 25 µM.

With `O=C(NO)c1ccc(CCCc2ccccc2)cc1` [Compound 56, N-Hydroxy-4-(3-phenylpropyl)-benzamide], the IC50 stood at 15 µM.

With `O=C(NO)c1ccc(CCCCc2ccccc2)cc1` [Compound 61, N-Hydroxy-4-(4-phenylbutyl)-benzamide], the IC50 was 4 µM.

On to `CC(C)C(Cc1ccc(NS(=O)(=O)c2ccccc2)cc1)C(=O)NO` (centres unmarked) [Compound 81], for which the IC50 was greater than 50 µM.

In the case of `O=C(/C=C/c1ccc(NS(=O)(=O)c2cccs2)cc1)NO` [Compound 87], the concentration for half-maximal inhibition (IC50) was determined as 3 µM.

Turning to `O=C(/C=C/c1ccc(NS(=O)(=O)c2cccc3ccccc23)cc1)NO` [Compound 93], half-maximal inhibition (IC50) required 0.35 µM.

In turn, `O=C(/C=C/c1ccc(NS(=O)(=O)c2ccc3ccccc3c2)cc1)NO` [Compound 94] showed an IC50 of 0.4 µM.

For the compound `O=C(/C=C/c1ccc(NS(=O)(=O)c2cc3ccccc3s2)cc1)NO` [Compound 95], the IC50 is 0.8 µM.

`O=C(/C=C/c1ccc(NS(=O)(=O)c2cccc3cccnc23)cc1)NO` [Compound 99] yielded an IC50 of 0.9 µM.

The compound `O=C(/C=C/c1ccc(CC(O)c2ccccc2)o1)NO` (centres unmarked) [Compound 136] displayed an IC50 of 9 µM.

For the compound `O=C(/C=C/c1ccc(NC(=O)Nc2ccc(Cl)cc2)cc1)NO` [Compound 145], the IC50 was found to be 3.8 µM.

The compound `O=C(/C=C/c1ccc(NC(=O)Nc2cccc3ccccc23)cc1)NO` [Compound 146] gave an IC50 of 2.9 µM.

`COc1ccc(NC(=O)Nc2ccc(/C=C/C(=O)NO)cc2)cc1OC` [Compound 147] returned an IC50 of 1.9 µM.

`O=C(NO)c1ccc(CCCS(=O)(=O)c2ccccc2)cc1` [Compound 148]: half-maximal inhibition (IC50) required 5 µM.

Consider `O=C(NO)c1ccc(CCc2ccccc2)cc1` [Compound 150], for which half-maximal inhibition (IC50) was put at 10 µM.

As for `O=C(NO)c1ccc(/C=C/c2ccccc2)cc1` [Compound 151], the IC50 was 7.5 µM.

Compound `O=C(NO)c1ccc(CCCCCc2ccccc2)cc1` [Compound 153] showed an IC50 of 5 µM.

On to `O=C(CCCc1ccc(CCCCc2ccccc2)cc1)NO` [Compound 156], for which inhibition was half-maximal at 5 µM (IC50).

Turning to `O=C(CCc1ccc(CCc2ccccc2)cc1)NO` [Compound 157], the midpoint of inhibition, the IC50, lay at 6 µM.

The compound `O=C(Cc1ccc(CCCS(=O)(=O)c2ccccc2)cc1)NO` [Compound 158] came in with an IC50 greater than 20 µM.

With `CN(C)c1ccc(CCc2ccc(C(=O)NO)s2)cc1` [Compound 171], inhibition was half-maximal at 20 µM (IC50).

Turning to `CN(C)c1ccc(CCc2ccc(C(=O)NO)cc2)cc1` [Compound 172], the midpoint of inhibition, the IC50, lay at 10 µM.

Regarding `O=C(Cc1ccc(CCCCc2ccccc2)cc1)NO` [Compound 174, N-hydroxy-2-(4-(4-phenylbutyl)phenyl)acetamide], the IC50 is greater than 20 µM.

Consider `O=C(Cc1ccc(CCCc2ccccc2)cc1)NO` [Compound 175], for which the IC50 was greater than 2 µM.

The assay is the same for the next values; noted with them: H446 nuclear extract; @ 5 μM.
Turning to `O=C(/C=C/c1ccc(NS(=O)(=O)c2ccccn2)cc1)NO` [Compound 96], the “pooled HDACs percent inhibition” value worked out at 33% @ 5 μM.

In the case of `O=C(/C=C/c1ccc(NS(=O)(=O)c2cccnc2)cc1)NO` [Compound 104], the “pooled HDACs percent inhibition” value was 21% @ 5 μM.

Still in this assay, the particulars now being: H446 nuclear extract; @ 20 μM.
`O=C(NO)c1cccc(CCc2ccccc2)c1` [Compound 68, N-Hydroxy-3-(2-phenylethyl)-benzamide]: the “pooled HDACs percent inhibition” value turned out to be 3% @ 20 μM.

Turning to `O=C(NO)c1ccc(CC[S+]([O-])c2ccccc2)cc1` (centres unmarked) [Compound 71, N-Hydroxy-4-(2-benzenesulfoxide)-ethyl benzamide], the “pooled HDACs percent inhibition” value amounted to 44% @ 20 μM.

Turning to `Nc1ccccc1NC(=O)/C=C/c1ccc(CC(=O)c2ccccc2)o1` [Compound 139], the “pooled HDACs percent inhibition” value turned out to be 44% @ 20 μM.

Consider `O=C(CCc1ccc(CC(=O)c2ccccc2)o1)NO` [Compound 143], for which the “pooled HDACs percent inhibition” value came to 55% @ 20 μM.

Take `Nc1ccccc1NC(=O)CCc1ccc(CC(=O)c2ccccc2)o1` [Compound 144]: the “pooled HDACs percent inhibition” value was 6% @ 20 μM.

On to `O=C(NO)c1ccc(CCCC(O)c2ccc3ccccc3c2)cc1` (centres unmarked) [Compound 149], for which the “pooled HDACs percent inhibition” value is reported as 8% @ 20 μM.

On to `O=C(CCCc1ccc(CCCc2ccccc2)cc1)NO` [Compound 155], for which the “pooled HDACs percent inhibition” value amounted to 39% @ 20 μM.

Consider `Nc1ccccc1NC(=O)/C=C/C#Cc1cccc(NS(=O)(=O)c2ccccc2)c1` [Compound 168], for which the “pooled HDACs percent inhibition” value was found to be 0% @ 20 μM.

Take `CN(C)c1ccc(CCc2ccccc2C(=O)NO)cc1` [Compound 173]: the “pooled HDACs percent inhibition” value is reported as 35% @ 20 μM.

Turning to `O=C(CCC1CCC(CC(=O)c2ccccc2)O1)NO` (centres unmarked) [Compound 176], the “pooled HDACs percent inhibition” value was found to be 20% @ 20 μM.

`O=C(CCCc1ccc(C(=O)NO)cc1)c1ccccc1` [Compound 177]: the “pooled HDACs percent inhibition” value was determined as 10% @ 20 μM.

The assay is the same for the next values; noted with them: H446 nuclear extract; @ 100 μM.
On to `O=C(Cc1cccc(NS(=O)(=O)c2cc3ccccc3s2)c1)NO` [Compound 14], for which the “pooled HDACs percent inhibition” value was 36% @ 100 μM.

For the compound `O=C(Cc1ccc(NS(=O)(=O)c2cccs2)cc1)NO` [Compound 16, 2-[4-(2-Thiophenesulfonylamino)-phenyl]-N-hydroxy-acetamide], the “pooled HDACs percent inhibition” value came to 38% 100 μM.

Turning to `O=C(Cc1ccc(NS(=O)(=O)c2cccc([N+](=O)[O-])c2)cc1)NO` [Compound 17, 2-[4-(3-nitrobenzenesulfonylamino)-phenyl]-N-hydroxy-acetamide], the “pooled HDACs percent inhibition” value amounted to 47% 100 μM.

As to `O=C(NO)c1cccc(CCCc2ccccc2)c1` [Compound 64, N-Hydroxy-3-(3-phenylpropyl)-benzamide], the “pooled HDACs percent inhibition” value is listed as 12% @ 100 μM.

A further assay addresses recombinant human HDAC-1 enzyme (rHDAC-1) (Homo sapiens (Human), UniProt Q13547). Description: Inhibition of recombinant human HDAC-1 ([3H]-acetylated histone substrate). The class given is biochemical.
Details: not given
Turning to `O=C(NO)c1ccc(CCSc2ccccc2)cc1` [Compound 70, N-Hydroxy-4-(2-thiophenyl)-ethyl benzamide], the concentration for half-maximal inhibition (IC50) turned out to be 0.9 µM.

The same assay, now with this note: Table 4, recombinant human HDAC-1.
As for `O=C(CCCCc1ccc(NS(=O)(=O)c2ccccc2)cc1)NO` [Compound 34], the IC50 was determined as 0.3 µM.

As for `O=C(CCc1ccc(NS(=O)(=O)c2ccccc2)cc1)NO` [Compound 38, N-Hydroxy-3-[4-(benzenesulfonylamino)-phenyl]-2-propanamide], the half-inhibitory concentration (IC50) stood at 0.1 µM.

On to `O=C(CCc1ccc(CCCc2ccccc2)cc1)NO` [Compound 77, N-Hydroxy-3-[4-(3-phenylpropyl)-phenyl]-propanamide], for which the IC50 turned out to be 0.65 µM.

In the case of `CC(C)C(Cc1ccc(NS(=O)(=O)c2ccccc2)cc1)C(=O)NO` (centres unmarked) [Compound 81], the IC50 is greater than 25 µM.

As to `O=C(/C=C/c1ccc(NS(=O)(=O)c2cccs2)cc1)NO` [Compound 87], the IC50 was determined as 0.6 µM.

`O=C(/C=C/c1ccc(NS(=O)(=O)c2ccc3ccccc3c2)cc1)NO` [Compound 94]: the IC50 came to 0.03 µM.

Take `O=C(/C=C/c1ccc(NS(=O)(=O)c2cc3ccccc3s2)cc1)NO` [Compound 95]: the half-inhibitory concentration (IC50) is 0.2 µM.

Turning to `COc1ccc(NS(=O)(=O)c2ccc(/C=C/C(=O)NO)cc2)cc1OC` [Compound 98], the IC50 came out at 0.06 µM.

Consider `COc1ccc(S(=O)(=O)Nc2ccc(/C=C/C(=O)Nc3ccccc3N)cc2)cc1OC` [Compound 116], for which the IC50 was 4 µM.

With `Nc1ccccc1NC(=O)/C=C/c1ccc(NS(=O)(=O)c2ccc(-c3ccccc3)cc2)cc1` [Compound 123], the IC50 was 1 µM.

With `Nc1ccccc1NC(=O)C#Cc1ccc(NS(=O)(=O)c2ccc(-c3ccccc3)cc2)cc1` [Compound 129], the IC50 worked out at 3 µM.

As for `O=C(/C=C/c1ccc(S(=O)(=O)Nc2ccc(-c3ccccc3)cc2)cc1)NO` [Compound 162], the IC50 amounted to 0.04 µM.

One may read the IC50 as the concentration that gives 50% inhibition.
